For the test, the target named is T1, AHR (Homo sapiens, UniProt P35869).
T1 sequence (P35869 11-848): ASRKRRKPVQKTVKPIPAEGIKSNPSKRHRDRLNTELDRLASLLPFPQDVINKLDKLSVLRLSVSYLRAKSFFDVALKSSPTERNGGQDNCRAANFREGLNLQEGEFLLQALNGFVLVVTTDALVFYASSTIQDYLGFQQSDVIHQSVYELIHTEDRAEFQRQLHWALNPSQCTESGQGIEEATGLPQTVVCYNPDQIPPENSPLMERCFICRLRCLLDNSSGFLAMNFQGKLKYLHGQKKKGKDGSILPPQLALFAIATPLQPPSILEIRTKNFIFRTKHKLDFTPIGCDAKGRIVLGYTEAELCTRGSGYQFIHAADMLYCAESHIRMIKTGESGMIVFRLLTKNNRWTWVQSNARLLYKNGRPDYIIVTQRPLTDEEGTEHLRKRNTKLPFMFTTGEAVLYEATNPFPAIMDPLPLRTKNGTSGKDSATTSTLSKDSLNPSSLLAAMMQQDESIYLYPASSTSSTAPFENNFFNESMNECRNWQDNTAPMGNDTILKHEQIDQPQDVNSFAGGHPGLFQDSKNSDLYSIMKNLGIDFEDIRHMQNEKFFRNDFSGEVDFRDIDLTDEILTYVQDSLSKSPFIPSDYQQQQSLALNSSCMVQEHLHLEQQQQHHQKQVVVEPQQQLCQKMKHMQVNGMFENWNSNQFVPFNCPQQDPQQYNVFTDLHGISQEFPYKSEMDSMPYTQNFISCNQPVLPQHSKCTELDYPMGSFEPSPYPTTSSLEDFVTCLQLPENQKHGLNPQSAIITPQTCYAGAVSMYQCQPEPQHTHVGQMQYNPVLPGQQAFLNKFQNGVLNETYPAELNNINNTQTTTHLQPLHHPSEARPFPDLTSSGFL
The test can be described thus: In vitro assay 1: AHR-luc transactivation assay, antagonism in human cell line (U87 glioblastoma cells, kynurenic acid prestimulated). To be noted: firefly luciferase DRE reporter, 150 μM kynurenic acid, 20 hours, read-out: Assay 1: AHR-luc Hum Antagonism IC50. Format: cell-based. Details: U87 glioblastoma cells (ATCC) endogenously expressing AHR; host or cells: U87 glioblastoma cells, stably transfected with DRE-firefly luciferase and renilla reporter constructs only. The protocol:
Transactivation Assay in Human Cell Line (In Vitro Assays 1 and 2)
Transactivation assays were carried out in U87 glioblastoma cells (ATCC) endogenously expressing AHR. In addition the cells were stably transfected with an AHR inducible firefly luciferase reporter gene construct that carried AHR-binding sites (DRE) in its promoter and a renilla reporter gene construct with constitutively active promoter. Kynurenic acid is an endogenous AHR activating ligand and was used to prestimulate test cells prior to testing the antagonistic properties of compounds.
In Vitro Assay 1: Antagonism in Human Cell Line
Cells in medium (tryptophan free RPMI, 1% FCS, 2 mM Glutamine) supplemented with 150 μM kynurenic acid were grown for 20 hours in absence (negative control) or presence of increasing concentrations of test compounds (typical dilutions: […], 0.25 nmol/L, 0.89 nmol/L; 3.1 nmol/L, 11 nmol/L, 38 nmol/L, 130 nmol/L, 470 nmol/L, 1.6 μmol/L, 5.7 μmol/L and 20 μmol/L in duplicates). As positive inhibition control cells supplemented with 150 μM kynurenic acid were incubated in presence of 5 μM Staurosporin. Normalization was done by positive and negative controls.
Firefly luciferase and Renilla activity was determined by the DualGlo Luciferase Assay System (Promega, #2920). Renilla activity was used to assess toxic effects of compounds.

The values that follow come from patent US11459312B2, “Sulphur substituted 3-oxo-2,3-dihydropyridazine-4-carboxamides” (Bayer Aktiengesellschaft, priority 2017, dated 2022).

pIC50: −log10 of the molar value.

One may read the pIC50 as −log10 of the IC50, conventionally taken in molar units.

For the molecule `O=C(N[C@@H]1CCS(=O)(=O)C1)c1cc(-c2ccc(Cl)cc2)nn(-c2cccc(F)c2)c1=O` (stereo in doubt) [Example 58, 6-(4-Chlorophenyl)-N-(1,1-dioxidotetrahydrothiophen-3-yl)-2-(3-fluorophenyl)-3-oxo-2,3-dihydropyridazine-4-carboxamide], the negative-log IC50 (pIC50) is 6.84. Consider `O=C(N[C@@H]1CS(=O)(=O)C[C@@H]1O)c1cc(-c2ccc(C(F)(F)F)cc2)nn(-c2cccc(F)c2)c1=O` (single isomer, unassigned) [Example 14, (+)-2-(3-fluorophenyl)-N-[(cis)-4-hydroxy-1,1-dioxidotetrahydro-thiophen-3-yl]-3-oxo-6-[4-(trifluoromethyl)phenyl]-2,3-dihydropyridazine-4-carboxamide], for which the pIC50 is 8.19. Turning to `C[C@@H](CS(C)(=N)=O)NC(=O)c1cc(-c2ccc(C(F)(F)F)cc2)nn(-c2cnn(C)c2)c1=O` (mixture of isomers) [Example 38, 2-(1-Methyl-1H-pyrazol-4-yl)-N-[(2S)-1-(S-methylsulfonimidoyl)propan-2-yl]-3-oxo-6-[4-(trifluoromethyl)phenyl]-2,3-dihydropyridazine-4-carboxamide], the pIC50 is 7.26. On to `C[C@@H](CS(C)(=N)=O)NC(=O)c1cc(-c2ccc(Cl)cc2)nn(-c2cccc(F)c2)c1=O` (single isomer, unassigned) [Example 8], for which the pIC50 was 6.85.

As for `N=S1(=O)C[C@H](O)[C@H](NC(=O)c2cc(-c3ccc(Cl)cc3)nn(-c3cccc(F)c3)c2=O)C1` (single isomer, unassigned) [Example 46, 6-(4-chlorophenyl)-2-(3-fluorophenyl)-N-[(cis)-4-hydroxy-1-imino-1-oxidotetrahydro-1H-1lambda4-thiophen-3-yl]-3-oxo-2,3-dihydropyridazine-4-carboxamide], the pIC50 is 6.99. For `C[C@@H](CS(C)(=O)=O)NC(=O)c1cc(-c2ccc(C(F)(F)F)cc2)nn(-c2cnn(C)c2)c1=O` [Example 22, 2-(1-Methyl-1H-pyrazol-4-yl)-N-[(2S)-1-(methylsulfonyl)propan-2-yl]-3-oxo-6-[4-(trifluoromethyl)phenyl]-2,3-dihydropyridazine-4-carboxamide], the pIC50 is 7.66. `C[C@@H](C[S+](C)[O-])NC(=O)c1cc(-c2ccc(Cl)cc2)nn(-c2cccc(F)c2)c1=O` (mixture of isomers) [Example 3, 6-(4-Chlorophenyl)-2-(3-fluorophenyl)-N-[(2S)-1-(methylsulfinyl)propan-2-yl]-3-oxo-2,3-dihydropyridazine-4-carboxamide]: the pIC50 was 7.35. The result for `O=C(N[C@@H]1C[S+]([O-])C[C@@H]1O)c1cc(-c2ccc(Cl)cc2)nn(-c2cccc(F)c2)c1=O` (single isomer, unassigned) [Example 29, 6-(4-chlorophenyl)-2-(3-fluorophenyl)-N-[(cis)-4-hydroxy-1-oxidotetrahydro-thiophen-3-yl]-3-oxo-2,3-dihydropyridazine-4-carboxamide] reads 6.52; that for `N=S1(=O)C[C@H](O)[C@H](NC(=O)c2cc(-c3ccc(Cl)cc3)nn(-c3cccc(F)c3)c2=O)C1` (stereo partly drawn) [Example 44, 6-(4-chlorophenyl)-2-(3-fluorophenyl)-N-[(cis)-4-hydroxy-1-imino-1-oxidotetrahydro-1H-1lambda4-thiophen-3-yl]-3-oxo-2,3-dihydropyridazine-4-carboxamide], 7.00.

For the molecule `O=C(N[C@@H]1C[S+]([O-])C[C@@H]1O)c1cc(-c2ccc(Cl)cc2)nn(-c2cccc(F)c2)c1=O` (single isomer, unassigned; (+)) [Example 27, (+)-6-(4-chlorophenyl)-2-(3-fluorophenyl)-N-[(cis)-4-hydroxy-1-oxidotetrahydro-thiophen-3-yl]-3-oxo-2,3-dihydropyridazine-4-carboxamide], the pIC50 was 7.03. As to `O=C(N[C@H]1CS(=O)(=O)C[C@H]1O)c1cc(-c2ccc(Cl)cc2)nn(-c2cccc(F)c2)c1=O` (single isomer, unassigned) [Example 56, 6-(4-Chlorophenyl)-2-(3-fluorophenyl)-N-[(cis)-4-hydroxy-1,1-dioxidotetrahydrothiophen-3-yl]-3-oxo-2,3-dihydropyridazine-4-carboxamide], the pIC50 was 7.19.

Take `O=C(N[C@@H]1CS(=O)(=O)C[C@@H]1O)c1cc(-c2ccc(C(F)(F)F)nc2)nn(-c2cccc(F)c2)c1=O` (relative stereo) [Example 19, 2-(3-fluorophenyl)-N-[(cis)-4-hydroxy-1,1-dioxidotetrahydro-thiophen-3-yl]-3-oxo-6-[6-(trifluoromethyl)pyridin-3-yl]-2,3-dihydropyridazine-4-carboxamide]: the pIC50 was 7.16. Take `O=C(N[C@@H]1CS(=O)(=O)C[C@@H]1O)c1cc(-c2ccc(C(F)(F)F)cc2)nn(-c2cccnc2)c1=O` (single isomer, unassigned) [Example 17, (+)-N-[(cis)-4-hydroxy-1,1-dioxidotetrahydro-thiophen-3-yl]-3-oxo-2-(pyridin-3-yl)-6-[4-(trifluoromethyl)phenyl]-2,3-dihydropyridazine-4-carboxamide]: the pIC50 is 7.79. The result for `C[C@@H](C[S+](C)[O-])NC(=O)c1cc(-c2ccc(C(F)(F)F)cc2)nn(-c2cnn(C)c2)c1=O` (single isomer, unassigned) [Example 25] reads 7.38; that for `O=C(N[C@@H]1CS(=O)(=O)C[C@@H]1O)c1cc(-c2ccc(C(F)(F)F)cc2)nn(-c2cnsc2)c1=O` (relative stereo) [Example 10, N-[(cis)-4-hydroxy-1,1-dioxidotetrahydro-thiophen-3-yl]-3-oxo-2-(1,2-thiazol-4-yl)-6-[4-(trifluoromethyl)phenyl]-2,3-dihydropyridazine-4-carboxamdie], 8.62. The result for `CSC[C@H](C)NC(=O)c1cc(-c2ccc(Cl)cc2)nn(-c2cccc(F)c2)c1=O` [Example 1, 6-(4-Chlorophenyl)-2-(3-fluorophenyl)-N-[(2S)-1-(methylsulfanyl)propan-2-yl]-3-oxo-2,3-dihydropyridazine-4-carboxamide] reads 7.28. With `O=C(N[C@@H]1C[S+]([O-])C[C@@H]1O)c1cc(-c2ccc(C(F)(F)F)cc2)nn(-c2cccnc2)c1=O` (single isomer, unassigned) [Example 35, N-[(cis)-4-hydroxy-1-oxidotetrahydro-thiophen-3-yl]-3-oxo-2-(pyridin-3-yl)-6-[4-(trifluoromethyl)phenyl]-2,3-dihydropyridazine-4-carboxamide], the pIC50 is 6.57. The figure for `C[C@@H](C[S+](C)[O-])NC(=O)c1cc(-c2ccc(Cl)cc2)nn(-c2cnn(C)c2)c1=O` (stereo partly drawn) [Example 49, 6-(4-Chlorophenyl)-2-(1-methyl-1H-pyrazol-4-yl)-N-[(2S)-1-(methylsulfinyl)propan-2-yl]-3-oxo-2,3-dihydropyridazine-4-carboxamide] is 7.58; for `C[S+]([O-])CCNC(=O)c1cc(-c2ccc(Cl)cc2)nn(-c2cccc(F)c2)c1=O` (stereo not drawn) [Example 51, 6-(4-Chlorophenyl)-2-(3-fluorophenyl)-N-[2-(methylsulfinyl)ethyl]-3-oxo-2,3-dihydropyridazine-4-carboxamide] it is 6.41; for `O=C(N[C@@H]1CS(=O)(=O)C[C@@H]1O)c1cc(-c2ccc(C(F)(F)F)nc2)nn(-c2cccc(F)c2)c1=O` (single isomer, unassigned) [Example 20, (+)-2-(3-fluorophenyl)-N-[(cis)-4-hydroxy-1,1-dioxidotetrahydro-thiophen-3-yl]-3-oxo-6-[6-(trifluoromethyl)pyridin-3-yl]-2,3-dihydropyridazine-4-carboxamide] it is 7.27. On to `CS(=N)(=O)CCNC(=O)c1cc(-c2ccc(Cl)cc2)nn(-c2cccc(F)c2)c1=O` (stereo not drawn) [Example 52, 6-(4-Chlorophenyl)-2-(3-fluorophenyl)-N-[2-(S-methylsulfonimidoyl)ethyl]-3-oxo-2,3-dihydropyridazine-4-carboxamide], for which the pIC50 was 6.15.
